The source of these data is US9067896B2, “Crystalline forms of 3-(2,6-dichloro-3,5-dimethoxy-phenyl)-1-{6-[4-(4-ethyl-piperazin-1-yl) -phenylamino]-pyrimidin-4-yl}-1-methyl-urea and salts thereof” (Novartis AG, priority 2009, dated 2015).

Where a name gives a salt, the structure may show the parent alone.

Usually Solubility stands for the concentration that dissolves in the medium under given conditions. Higher therefore signals much dissolved substance.

Holding throughout (format): physicochemical
Series [1] can be described thus: Determination of solubility (equilibration in solvent, filtrate by HPLC). As to conditions: for Solubility: initial solubility test. The method, then:
Excess free base (free base of Formula I), its phosphate salt (the monophosphoric acid salt of the free base), or another acid salt was equilibrated in solvents for 1 day at 25±0.5° C. The resultant slurry was filtered and the filtrate used for solubility determination by HPLC.
Solubility of the monohydrate of the anhydrous and monohydrate free base was measured in various aqueous media (e.g., pH 6.8 buffer, pH 4.5 buffer, pH 1 buffer), including simulated and actual human fluids.
The human fluids were collected from 12 human subjects.
Solubility studies of the phosphate salt were undertaken in aqueous media and in human fluids at 24 hours.

Series [2] is described as follows: Hygroscopicity from DVS sorption/desorption isotherms. As to conditions: for weight gain due to water absorption (DVS): listed as hydrochloride salt. The method, then: Hygroscopicity was measured from sorption/desorption isotherms using Surface Measurement System DVS-1 at 25±0.5° C. Samples were evaluated at various humidities including 75%, 85%, and 95%.
The free base (anhydrous and monohydrate) and its phosphate salt (form A) were subjected to sorption and desorption cycle using a VTI brand instrument. The solids were collected after the experiment and analyzed. […] The DVS plots are shown in FIGS. 4A (free base, anhydrous), 4B (phosphate salt (form A) and 4C (free base, monohydrate). The maximum water uptake for the phosphate salt (form A) was less than 2% (i.e. 0.7%) at 25° C. up to 95% relative humidity (rh) (see Table 9). The maximum water uptake for the monohydrate was less than 1.4% at 25° C. up to 95% RH. The monohydrate with an approximate water content of 3% could not be completely dried during the experiment but the water that could be removed was reversibly reabsorbed. The plateau of existence of the monohydrate form is found to be within 10% and 95% RH with a slight hysteresis at the second desorption cycle.

The nature of series [3]: Intrinsic dissolution rate. As to conditions: 37° C., disc 50 rpm, 290.2 nm. The method, then:
The intrinsic dissolution rate measurements were carried out in 0.5 cm^2 VanKel punch and die assemblies at a pellet pressure of 2000 pounds. […]
The intrinsic dissolution rate was determined for the phosphate salt in water, pH=6.8 and 0.1N HCl, and for the free base monohydrate in pH=6.8, 4.5 and 0.1N HCl. The measurements were carried out on a VanKel instrument using a Cary UV/VIS spectrophotometer (Table 2).

With Methanesulfonate, the results for the “Solubility” value in series [1] (Water) and in series [1] (pH3 Buffer) were 870 µg/mL and 3 µg/mL, respectively.

Take Malonate: the “weight gain by DVS” value in series [2] (over the humidities tested (75%, 85%, 95% RH)) is listed as “about 10%”.

As for `CCN1CCN(c2ccc(Nc3cc(N(C)C(=O)Nc4c(Cl)c(OC)cc(OC)c4Cl)ncn3)cc2)CC1` [Free base (monohydrate)], the “Solubility in mg/ml after 24 h” value in series [1] (Fasted State Simulated Intestinal Fluid (FaSSIF), listed as Monohydrate Free Base) is 0.003 mg/mL; in series [1] (Fed State Simulated Intestinal Fluid (FeSSIF), listed as Monohydrate Free Base), 0.459 mg/mL; in series [1] (HIF, fed, listed as Monohydrate Free Base), 0.040 mg/mL; in series [1] (Human gastric fluid (HGF), listed as Monohydrate Free Base) it was 0.002 mg/mL; in series [1] (Human intestinal fluid (HIF) fasted, listed as Monohydrate Free Base), 0.019 mg/mL; in series [1] (Simulated Gastric Fluid (SGF), listed as Monohydrate Free Base), 0.020 mg/mL. Also, the “Solubility in mg/ml after 24 h” value in series [1] (pH 1 HCl, listed as Monohydrate Free Base) came to 0.103 mg/mL; in series [1] (ph 4.5 Acetate, listed as Monohydrate Free Base), 0.054 mg/mL. Moreover, the maximum water uptake result in series [2] (25° C. up to 95% relative humidity) is reported as “less than 1.4%”. Besides, the “Intrinsic DR value” in series [3] (HCl 0.1N) is reported as 0.3132 mg/min/cm^2; in series [3] (pH = 4.5), 0.0001 mg/min/cm^2; in series [3] (pH = 6.8), 0.0026 mg/min/cm^2.

As for `CCN1CCN(c2ccc(Nc3cc(N(C)C(=O)Nc4c(Cl)c(OC)cc(OC)c4Cl)ncn3)cc2)CC1` [Hydrochloride Salt], the “Solubility in mg/ml after 24 h” value in series [1] (Fasted State Simulated Intestinal Fluid (FaSSIF)) is 0.003 mg/mL; in series [1] (Fed State Simulated Intestinal Fluid (FeSSIF)), 0.248 mg/mL; in series [1] (HIF, fed), 0.0109 mg/mL; in series [1] (Human gastric fluid (HGF)), 0.0348 mg/mL; in series [1] (Human intestinal fluid (HIF) fasted), 0.0154 mg/mL; in series [1] (Simulated Gastric Fluid (SGF)), 0.073 mg/mL. The entries for the “Solubility in mg/ml after 24 h” value in series [1] (pH 1 HCl) and in series [1] (ph 4.5 Acetate) were 0.075 mg/mL and 0.822 mg/mL, respectively. Moreover, the entries for the “weight gain due to water absorption (DVS)” value in series [2] (75% RH) and in series [2] (95% RH) were “about 4.1%” and “about 16.9%”, respectively. Also, the “hygroscopicity (in words)” value in series [2] (listed as hydrochloride) was “hygroscopic”.
